Six molecules from patent publication US20080076762A1, “Novel 4-Aminopiperidine Derivatives” (priority 2004, published 2008) can be followed below.

The target in one assay is plasmepsin II (Plasmodium falciparum, UniProt Q8I6V3). Description: FRET assay for plasmepsin II. In kind it is biochemical. The note with it: pH 5, 37° C., substrate M-2120 1 μM. The procedure: (§1) The Fluorescence Resonance Energy Transfer (FRET) Assay for Plasmepsin II & IV and Human Cathepsin D & E:
(§2) The assay conditions are selected according to reports in the literature.
(§3) The FRET assay is performed in white polysorp plates (Fluoronunc, cat no 264 572) at 37° C. with a final volume of 80 μl.
(§4) The assay buffer is composed of 50 mM sodium acetate pH 5, 12.5% (w/v) glycerol, and 0.1% (w/v) BSA. The reaction consists of the following components: 60 μl assay buffer, 4 μl inhibitor (in DMSO), 8 μl substrate (M-2120 from BACHEM) to a final concentration of 1 μM and 8 μl enzyme (plasmepsin II, plasmepsin IV or cathepsin E to a final amount of 0.015 μg/ml per assay tube, cathepsin D to a final amount of 0.05 μg/ml per assay tube). The inhibitor is pre-diluted in DMSO in a dilution plate and six concentrations are prepared in duplicate. The compounds are usually tested at a final concentration varying from 1 nM to 100 μM. The substrate is diluted using 50% DMSO-50% assay buffer and the enzyme using assay buffer. The mixtures are then incubated for 3 h at 37° C. and the fluorescence is determined at 1 and 3 hour with a FluoroStar Galaxy from BMG using excitation and emission filters of 355 and 520 nm, respectively.
(§5) Auto-fluorescence of all the test substances is determined in assay buffer in the absence of substrate and enzyme and this value is subtracted from the final signal.
(§6) The inhibitory activity of the compounds is expressed as IC50, which represents the concentration of compound that inhibits 50% of the maximal (uninhibited) enzyme activity.

Another assay has as its target plasmepsin IV (Plasmodium falciparum, UniProt Q8IM16). Description: FRET assay for plasmepsin IV. In kind it is biochemical. The note with it: pH 5, 37° C., substrate M-2120 1 μM. As for the experimental part: as §1, §2, §3, §4, §5, §6

plasmepsin II, sequence (Q8I6V3 125-453): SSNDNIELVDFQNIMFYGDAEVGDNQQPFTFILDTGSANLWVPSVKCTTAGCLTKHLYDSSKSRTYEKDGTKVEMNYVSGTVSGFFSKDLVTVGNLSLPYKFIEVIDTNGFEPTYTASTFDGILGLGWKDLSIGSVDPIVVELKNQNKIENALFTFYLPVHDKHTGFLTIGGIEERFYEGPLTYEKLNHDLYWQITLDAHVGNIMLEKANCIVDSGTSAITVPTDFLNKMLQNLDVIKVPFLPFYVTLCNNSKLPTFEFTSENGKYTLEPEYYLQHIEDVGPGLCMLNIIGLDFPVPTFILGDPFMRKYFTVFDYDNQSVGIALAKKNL
plasmepsin IV, sequence (Q8IM16 122-449): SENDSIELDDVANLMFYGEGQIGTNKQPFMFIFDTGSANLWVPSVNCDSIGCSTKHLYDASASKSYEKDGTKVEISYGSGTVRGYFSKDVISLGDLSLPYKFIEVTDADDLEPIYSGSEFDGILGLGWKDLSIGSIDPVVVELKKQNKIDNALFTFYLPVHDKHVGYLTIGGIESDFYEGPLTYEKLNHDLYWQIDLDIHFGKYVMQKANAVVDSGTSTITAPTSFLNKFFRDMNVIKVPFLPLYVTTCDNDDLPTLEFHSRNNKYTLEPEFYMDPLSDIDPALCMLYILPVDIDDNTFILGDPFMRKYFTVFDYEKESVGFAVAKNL

The term IC50 denotes the concentration needed to halve the response being measured. A high value points to weaker potency in that assay. Regarding `CCCCCc1ccc(C(=O)N(Cc2ccc(N3CCSCC3)nc2)C2CCN(CCC(C)C)CC2)nc1` [Example 226], the IC50 on plasmepsin II turned out to be 51 nM; at plasmepsin IV it was 359 nM.

As to `CCCCCc1ccc(C(=O)N(Cc2ccc(-c3ccc(Cl)c(Cl)c3)o2)C2CCN(CCC(C)C)CC2)cc1` [Example 220, N-[5-(3,4-dichloro-phenyl)-furan-2-ylmethyl]-N-[1-(3-methyl-butyl)-piperidin-4-yl]-4-pentyl-benzamide], the figures for the IC50 on plasmepsin II and against plasmepsin IV were 41 nM and 56 nM, respectively. On to `CCCCCc1ccc(C(=O)N(Cc2ccc(-c3ccc(C(=O)N4CCCCC4)cc3)cc2)C2CCN(CCC(C)C)CC2)nc1` [Example 163], for which the IC50 against plasmepsin II was determined as 10 nM; against plasmepsin IV it was 635 nM. The matching figures for `CCCCCc1ccc(C(=O)N(Cc2ccc(C(=O)NCc3c(F)cccc3F)cc2)C2CCN(CCC(C)C)CC2)nc1` [Example 223, 5-Pentyl-pyridine-2-carboxylic acid [4-(2,6-difluoro-benzylcarbamoyl)-benzyl]-[1-(3-methyl-butyl)-piperidin-4-yl]-amide]: 40 nM and 1110 nM. The molecule `CCCCCc1ccc(C(=O)N(Cc2ccc(-c3ccc(C(=O)N4CCCCC4)cc3)cc2)C2CCN(CCC(C)C)CC2)s1` [Example 88] had a half-inhibitory concentration (IC50) against plasmepsin II of 77 nM. For the molecule `CCCCCc1ccc(C(=O)N(Cc2ccc(-c3cccc(C)c3)cc2)C2CCN(CCC(C)C)CC2)nc1` [Example 166, 5-Pentyl-pyridine-2-carboxylic acid (3′-methyl-biphenyl-4-ylmethyl)-[1-(3-methyl-butyl)-piperidin-4-yl]-amide], the IC50 was found to be 16 nM against plasmepsin II and 22 nM against plasmepsin IV.
